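All cell lines were grown in 96-well plates and treated with compound for 48 hours. Abbreviation: GI50, concentration required for 50% inhibition of growth.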 Activity calls are given as the source filed them. Cut-off read from the data, not from the text of the source: active = GI50 up to about 1.1 µM and inactive = higher.
Columns and labels:
Assay in all cases: inhibition of tumour cell growth, NCI panel, 48 h
786-0 = tested on: 786-0
CAKI-1 = tested on: CAKI-1
DU-145 = tested on: DU-145
HCC 2998 = tested on: HCC 2998
HL-60 = tested on: HL-60
HOP-62 = tested on: HOP-62
IGROV-1 = tested on: IGROV-1
LOX IMVI = tested on: LOX IMVI
MDA-MB-435 = tested on: MDA-MB-435
MDA-N = tested on: MDA-N
NCI-H23 = tested on: NCI-H23
NCI-H522 = tested on: NCI-H522
PC-3 = tested on: PC-3
RPMI-8226 = tested on: RPMI-8226
SK-OV-3 = tested on: SK-OV-3
SW-620 = tested on: SW-620
T47D = tested on: T47D
TK-10 = tested on: TK-10
UACC-257 = tested on: UACC-257
UACC-62 = tested on: UACC-62

Compound | GI50 (786-0) | GI50 (CAKI-1) | GI50 (DU-145) | GI50 (HCC 2998) | GI50 (HL-60) | GI50 (HOP-62) | GI50 (IGROV-1) | GI50 (LOX IMVI) | GI50 (MDA-MB-435) | GI50 (MDA-N) | GI50 (NCI-H23) | GI50 (NCI-H522) | GI50 (PC-3) | GI50 (RPMI-8226) | GI50 (SK-OV-3) | GI50 (SW-620) | GI50 (T47D) | GI50 (TK-10) | GI50 (UACC-257) | GI50 (UACC-62)
O=C1Sc2cc3ccccc3cc2C(=O)Sc2ccc(Br)cc21 | 2.07 µM (inactive) | 4.73 µM (inactive) | 4.84 µM (inactive) | 4.57 µM (inactive) | 3.9 µM (inactive) | 6.21 µM (inactive) | 3.78 µM (inactive) | 1.76 µM (inactive) | 3.48 µM (inactive) | 4.51 µM (inactive) | 8.47 µM (inactive) | 1.82 µM (inactive) | 3.43 µM (inactive) | 1.65 µM (inactive) | 15.5 µM (inactive) | 3.07 µM (inactive) | 3.33 µM (inactive) | 5.33 µM (inactive) | 5.81 µM (inactive) | 4.93 µM (inactive)
CSC1(Cc2ccccn2)C(=O)Nc2cccc([N+](=O)[O-])c21 (centres undefined) | > 100 µM (inactive) | > 100 µM (inactive) | > 100 µM (inactive) | > 100 µM (inactive) | 42.3 µM (inactive) | > 100 µM (inactive) | > 100 µM (inactive) | 53.5 µM (inactive) | > 100 µM (inactive) | > 100 µM (inactive) | > 100 µM (inactive) | 61.1 µM (inactive) | > 100 µM (inactive) | 78 µM (inactive) | > 100 µM (inactive) | 56.4 µM (inactive) | 52.1 µM (inactive) | > 100 µM (inactive) | > 100 µM (inactive) | > 100 µM (inactive)
Clc1nc(-c2ccccc2)nc(Cl)c1Cl | 8.05 µM (inactive) | 3.09 µM (inactive) | 15.8 µM (inactive) | 7.71 µM (inactive) | 13.2 µM (inactive) | 18 µM (inactive) | 8.69 µM (inactive) | 2.26 µM (inactive) | 12.9 µM (inactive) | 13 µM (inactive) | 14.7 µM (inactive) | 3.21 µM (inactive) | 11.8 µM (inactive) | 4.29 µM (inactive) | 14 µM (inactive) | 4.98 µM (inactive) | 10 µM (inactive) | 26.7 µM (inactive) | 14.6 µM (inactive) | 13.7 µM (inactive)
CC(=O)Nc1ccc(-c2nc3ccccc3s2)cc1Cl | > 78.3 µM (inactive) | 56.5 µM (inactive) | 55.6 µM (inactive) | 0.23 µM (active) | > 100 µM (inactive) | 22.7 µM (inactive) | < 0.0217 µM (active) | > 86.5 µM (inactive) | > 100 µM (inactive) | > 100 µM (inactive) | 51.4 µM (inactive) | 54.5 µM (inactive) | > 100 µM (inactive) | > 100 µM (inactive) | 40.6 µM (inactive) | > 100 µM (inactive) | 0.395 µM (active) | 0.0664 µM (active) | > 41.1 µM (inactive) | > 73.5 µM (inactive)
COc1cc(C=C(c2ccc(N(C)C)cc2)c2ccc(N(C)C)cc2)c2ccccc2c1OC | > 100 µM (inactive) | > 100 µM (inactive) | > 100 µM (inactive) | 87.7 µM (inactive) | 9.29 µM (inactive) | 64 µM (inactive) | > 100 µM (inactive) | 64.9 µM (inactive) | 22.3 µM (inactive) | 16.2 µM (inactive) | > 100 µM (inactive) | 25.4 µM (inactive) | 41.6 µM (inactive) | 45.8 µM (inactive) | > 100 µM (inactive) |  | > 100 µM (inactive) | > 100 µM (inactive) | 76.7 µM (inactive) | 27.4 µM (inactive)
CC(C)(C)c1ccc(-c2nc3ccc(Cl)cc3c(=O)o2)cc1 | 36.6 µM (inactive) | 25.4 µM (inactive) | 25.4 µM (inactive) | 12.8 µM (inactive) | 19.4 µM (inactive) | 20.9 µM (inactive) | 18.2 µM (inactive) | 15.4 µM (inactive) | 24.1 µM (inactive) | 25.2 µM (inactive) | 11.4 µM (inactive) | 12.7 µM (inactive) | 21.5 µM (inactive) | 19.6 µM (inactive) | 18.4 µM (inactive) | 26.4 µM (inactive) | 20.5 µM (inactive) | 41.3 µM (inactive) | 31.2 µM (inactive) | 18.8 µM (inactive)
O=C1Cc2c(-c3ccc(Cl)cc3)cc(-c3ccccc3)nc2-c2ccccc2N1 | 2.03 µM (inactive) | 4.86 µM (inactive) | 8.18 µM (inactive) | 4.06 µM (inactive) | 10.7 µM (inactive) | 8.24 µM (inactive) | 6.95 µM (inactive) | 6.56 µM (inactive) | 7.76 µM (inactive) | 9.35 µM (inactive) | 10.5 µM (inactive) | 8.38 µM (inactive) | 19.4 µM (inactive) | 9.25 µM (inactive) | 4.46 µM (inactive) | 11 µM (inactive) | 2.66 µM (inactive) | 6.07 µM (inactive) | 25.4 µM (inactive) | 11.9 µM (inactive)
Nc1ccc(-c2ccc(Nc3cc(S(=O)(=O)O)c(N)c4c3C(=O)c3ccccc3C4=O)cc2)c(S(=O)(=O)O)c1 | > 100 µM (inactive) | > 100 µM (inactive) | > 100 µM (inactive) | > 100 µM (inactive) | > 100 µM (inactive) | > 100 µM (inactive) | > 100 µM (inactive) | > 100 µM (inactive) | > 100 µM (inactive) | > 100 µM (inactive) | > 100 µM (inactive) | > 100 µM (inactive) | > 100 µM (inactive) | > 100 µM (inactive) | > 100 µM (inactive) | > 100 µM (inactive) | > 100 µM (inactive) | > 100 µM (inactive) | > 100 µM (inactive) | > 100 µM (inactive)
O=C(/C=C1\C[C@H]2C=Nc3ccccc3C(=O)N2C1)NCCCNC(=O)/C=C1\C[C@H]2C=Nc3ccccc3C(=O)N2C1 | 3.03 µM (inactive) | 13.3 µM (inactive) | 18.5 µM (inactive) | 20.2 µM (inactive) | 8.73 µM (inactive) | 16.6 µM (inactive) | 17.3 µM (inactive) | 6.25 µM (inactive) | 19.1 µM (inactive) | 17.1 µM (inactive) | 15.5 µM (inactive) | 1.96 µM (inactive) | 17.6 µM (inactive) | 10.1 µM (inactive) | 18.5 µM (inactive) | 5.51 µM (inactive) | 16 µM (inactive) | 19.8 µM (inactive) | 16.5 µM (inactive) | 15.7 µM (inactive)
Cc1ccc(C(=O)/C=C2\Nc3ccccc3SC2=O)c(C)c1 | 26.2 µM (inactive) | 37.2 µM (inactive) | 75.7 µM (inactive) | 59.3 µM (inactive) | 26.9 µM (inactive) | 32.9 µM (inactive) | 29.8 µM (inactive) | 37.4 µM (inactive) | 56.2 µM (inactive) | 62.2 µM (inactive) | 36.9 µM (inactive) | 26.9 µM (inactive) | 47.9 µM (inactive) | 28.5 µM (inactive) | 43.9 µM (inactive) |  | 61.9 µM (inactive) | > 100 µM (inactive) | 42 µM (inactive) | 32.7 µM (inactive)
CCc1nn(CN2CCN(C)CC2)c(=S)n1/N=C\c1ccc(-c2ccc([N+](=O)[O-])cc2)o1 | 29.9 µM (inactive) | 74.5 µM (inactive) | 50.2 µM (inactive) | 48.5 µM (inactive) | > 100 µM (inactive) | 28.4 µM (inactive) | 89.9 µM (inactive) | 59 µM (inactive) | 66.1 µM (inactive) | 94 µM (inactive) | 34.9 µM (inactive) | 51.5 µM (inactive) | 54.3 µM (inactive) | 39.5 µM (inactive) | 40.7 µM (inactive) |  | 19.9 µM (inactive) | 28.5 µM (inactive) | 57.7 µM (inactive) | 39 µM (inactive)
N#CC(C#N)=CNC(=S)c1ccncc1 | > 100 µM (inactive) | 46.7 µM (inactive) | > 100 µM (inactive) | 59.8 µM (inactive) | 48.1 µM (inactive) | > 100 µM (inactive) | 69.5 µM (inactive) | > 100 µM (inactive) | > 100 µM (inactive) | > 100 µM (inactive) | > 100 µM (inactive) | 21.9 µM (inactive) | > 100 µM (inactive) | 36.9 µM (inactive) | > 100 µM (inactive) | 64.9 µM (inactive) | > 100 µM (inactive) |  | > 100 µM (inactive) | > 100 µM (inactive)
C/C=C/C(=O)N1C(=O)OC[C@@H]1c1ccccc1 | 18.2 µM (inactive) | 18.3 µM (inactive) | 20.5 µM (inactive) | 23.1 µM (inactive) | 21.9 µM (inactive) | 20.4 µM (inactive) | 19.4 µM (inactive) | 18.2 µM (inactive) | 27.4 µM (inactive) | 20.7 µM (inactive) | 17.2 µM (inactive) | 20.4 µM (inactive) | 18.3 µM (inactive) | 26.1 µM (inactive) | 18.2 µM (inactive) | 24.6 µM (inactive) | 16.3 µM (inactive) | 17.5 µM (inactive) | 20.4 µM (inactive) | 
CC(C)(C)C(=O)C(C#N)C(=O)C(C)(C)C | > 100 µM (inactive) | > 100 µM (inactive) | > 100 µM (inactive) | > 100 µM (inactive) | > 100 µM (inactive) | > 100 µM (inactive) | > 100 µM (inactive) | > 100 µM (inactive) | > 100 µM (inactive) | > 100 µM (inactive) | > 100 µM (inactive) | > 100 µM (inactive) | > 100 µM (inactive) | > 100 µM (inactive) | > 100 µM (inactive) | > 100 µM (inactive) | > 100 µM (inactive) | > 100 µM (inactive) | > 100 µM (inactive) | 

— ChEMBL document CHEMBL1201862, “PubChem BioAssay data set” (2004)
